In US20090239271A1, “FERMENTATION BROTH EXTRACTION OF K-252A” (ABBOTT LABORATORIES, priority 2005, published 2009):

Experiment: solubility of K-252a in various solvents at 22° C.
Assay type: physicochemical

COC(=O)[C@@]1(O)C[C@H]2O[C@]1(C)n1c3ccccc3c3c4c(c5c6ccccc6n2c5c31)C(=O)NC4 [K-252a, methyl (1R,2S,4R)-2,4-(6,7,12,13-tetrahydro-5H-indolo[2,3-a]pyrrolo[3,4-c]carbazol-5-onediyl)-1-hydroxy-2-methyltetrahydrofuran carboxylate]
Solubility (solvent 1% water/acetone): 9.36 mg K-252a/g solvent
Solubility (solvent 5% acetone/methanol): 0.90 mg K-252a/g solvent
Solubility (solvent 10% MTHF/methanol): 1.20 mg K-252a/g solvent
Solubility (solvent 10% acetone/methanol): 1.22 mg K-252a/g solvent
Solubility (solvent 10% water/MTHF (kinetic)): 104.07 mg K-252a/g solvent
Solubility (solvent 10% water/MTHF (thermodynamic)): 31.97 mg K-252a/g solvent
Solubility (solvent 10% water/acetone): 18.25 mg K-252a/g solvent
Solubility (solvent 10% water/methanol): 0.54 mg K-252a/g solvent
Solubility (solvent 20% water/acetone): 17.78 mg K-252a/g solvent
Solubility (solvent 20% water/methyl acetate): >17.7 mg K-252a/g solvent
Solubility (solvent 30% water/acetone): 12.40 mg K-252a/g solvent
Solubility (solvent 50% acetone/methanol): 7.93 mg K-252a/g solvent
Solubility (solvent 75% acetone/methanol): 18.59 mg K-252a/g solvent
Solubility (solvent MTHF): 27.99 mg K-252a/g solvent
Solubility (solvent acetone): 7.99 mg K-252a/g solvent
Solubility (solvent methanol): 0.72 mg K-252a/g solvent
Solubility (solvent methyl acetate): >11.7 mg K-252a/g solvent
